Test results published in ChEMBL document CHEMBL1949553, “Microbial transformation of deoxyandrographolide and their inhibitory activity on LPS-induced NO production in RAW 264.7 macrophages” (Bioorg Med Chem Lett, 2012).

Assays:
[1] = system: RAW264.7; assay: Antiinflammatory activity in mouse RAW264.7 cells assessed as inhibition of LPS-induced NO production after 24 hrs by Griess method; assay type: functional, cell-based; conditions: RAW264.7, 24 h
[2] = Cytotoxicity against mouse RAW264.7 cells assessed as cell viability at 100 uM after 24 hrs by MTT assay; assay type: cell-based; conditions: read-out: Activity

Row | IC50 [1] [µM] | Structure (SMILES) | viability at 24 h, 100 µM [2] [%]
1 | > 100 | C=C1CC[C@@H]2[C@](C)(CO)[C@H](O)C[C@@H](O)[C@@]2(C)[C@@H]1CCC1=CCOC1=O | 101
2 | 10.1 | C=C1CC[C@H]2[C@@](C)(CCC(=O)[C@@]2(C)CO)[C@@H]1CCC1=CCOC1=O | 110
3 | 89.2 | C[C@@]12CCC(=O)[C@@](C)(CO)[C@H]1CC[C@@]1(CO1)[C@H]2CCC1=CCOC1=O | 63.1
4 | > 100 | CO[C@]1(CO)CC[C@@H]2[C@](C)(CO)[C@H](O)CC[C@@]2(C)[C@@H]1CCC1=CCOC1=O | 100
5 | 28.4 | C=C1CC[C@@H]2[C@](C)(CO)C(=O)CC[C@@]2(C)[C@]1(O)CCC1=CCOC1=O | 87.5
6 | 12.2 | C=C1CC[C@H]2[C@@](C)(C[C@H](O)C(=O)[C@@]2(C)CO)[C@@H]1CCC1=CCOC1=O | 103
7 | 75.3 | C=C1CC[C@H]2[C@@](C)(CCC(=O)[C@@]2(C)CO)[C@@H]1/C=C/C1=CCOC1=O | 104
8 | 97.2 | C=C1CC[C@@H]2[C@](C)(CO)[C@H](O)CC[C@@]2(C)[C@]1(O)/C=C/C1=CCOC1=O | 98.6
9 | 71.3 | C[C@@]12CCC(=O)[C@@](C)(CO)[C@H]1CC=C(CO)[C@H]2CCC1=CCOC1=O | 104
10 | > 100 | C=C1[C@@H](CCC2=CCOC2=O)[C@]2(C)CC[C@@H](O)[C@@](C)(CO)[C@H]2C[C@@H]1O | 89.1
11 | 26.5 | C=C1CC[C@@H]2[C@](C)(CO)[C@H](O)CC[C@@]2(C)[C@@H]1C/C=C1/C(=O)OC[C@@H]1O | 65.2
12 | > 100 | C[C@]1(CO)[C@H]2CC[C@@]3(CO3)[C@@H](CCC3=CCOC3=O)[C@]2(C)CC[C@H]1O | 88.4
13 | 39.1 | C[C@]1(CO)[C@H]2CC=C(CO)[C@@H](/C=C/C3=CCOC3=O)[C@]2(C)CC[C@H]1O | 106
14 | > 100 | C[C@@]1(CO)[C@H](O)CC[C@@]2(C)C(CCC3=CCOC3=O)=C(CO)CC[C@H]12 | 91.1

Second part, the compound before the results:

Row | Structure (SMILES) | IC50 [1] [µM] | viability at 24 h, 100 µM [2] [%]
15 | C=C1CC[C@H]2[C@@](C)(C=CC(=O)[C@@]2(C)CO)[C@@H]1CCC1=CCOC1=O | 10 | 100
16 | C[C@@]12CCC(=O)[C@@](C)(CO)[C@H]1CCC(CO)=C2CCC1=CCOC1=O | 79 | 101
17 | C=C1[C@H](O)C[C@H]2[C@@](C)(CCC(=O)[C@@]2(C)CO)[C@@H]1CCC1=CCOC1=O | 58.2 | 102
18 | C=C1CC[C@@H]2[C@](C)(CO)[C@H](O)CC[C@@]2(C)[C@@H]1C/C=C1/C(=O)OC[C@H]1O [ANDROGRAPHOLIDE] | 6.96 | 49.6
19 | C=C1CC[C@@H]2[C@](C)(COC3O[C@H](CO)[C@@H](O)[C@H](O)[C@H]3O)CCC[C@@]2(C)[C@@H]1CCC1=CCOC1=O (some centres not stated) | > 100 | 81.4
20 | C=C1CC[C@@H]2[C@](C)(CO)CCC[C@@]2(C)[C@@H]1CCC1=CCOC1=O [ANDROGRAPANIN] | 11.6 | 99.8
21 | C[C@@]1(CO)[C@H](O)CC[C@@]2(C)C(CCC3=CCOC3=O)=C(C=O)CC[C@H]12 | > 100 | 99.7
22 | C=C1CC[C@@H]2[C@](C)(CO)[C@H](O)CC[C@@]2(C)[C@]1(O)CCC1=CCOC1=O | > 100 | 86
23 | C=C1CC[C@@H]2[C@](C)(CO)[C@H](O)CC[C@@]2(C)[C@@H]1C/C=C(/C(=O)O)[C@@H](O)CO | > 100 | 104
24 | CN(C)c1ccc(O)c2c1C[C@H]1C[C@H]3[C@H](N(C)C)C(O)=C(C(N)=O)C(=O)[C@@]3(O)C(O)=C1C2=O [MINOCYCLINE] | 34.9 | 100
25 | C=C1CC[C@H]2[C@@](C)([C@H](O)CC(=O)[C@@]2(C)CO)[C@@H]1CCC1=CCOC1=O | 61.9 | 100
26 | C=C1CC[C@@H]2[C@](C)(CO)[C@H](O)CC[C@@]2(C)[C@@H]1CCC1=CCOC1=O [DEOXYANDROGRAPHOLIDE] | 21 | 100
